Experimental data reported in PMC9805530 (European journal of medicinal chemistry, 2022).

Assays:
Sirt3 [1] = target: T1, Sirt3 (Homo sapiens, UniProt Q9NTG7); test: Sirt3 deacetylation Activity Assay Kit; details: time course, Fig. 3
T1 sequence (Q9NTG7 1-399): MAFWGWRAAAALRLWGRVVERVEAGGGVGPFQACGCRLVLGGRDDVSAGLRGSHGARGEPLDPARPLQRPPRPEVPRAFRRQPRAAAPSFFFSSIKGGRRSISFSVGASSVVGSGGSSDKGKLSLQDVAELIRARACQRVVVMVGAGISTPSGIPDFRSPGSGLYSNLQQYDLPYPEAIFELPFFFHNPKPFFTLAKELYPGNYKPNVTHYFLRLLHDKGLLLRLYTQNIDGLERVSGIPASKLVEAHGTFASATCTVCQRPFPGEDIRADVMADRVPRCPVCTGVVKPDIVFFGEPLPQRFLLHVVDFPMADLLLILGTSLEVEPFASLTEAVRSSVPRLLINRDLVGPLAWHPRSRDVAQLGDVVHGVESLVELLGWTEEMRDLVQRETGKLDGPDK

Sirt6 [2] = target: T2, Sirt6 (Homo sapiens, UniProt Q8N6T7); test: Sirt6-dependent peptide deacetylation, Fluor de Lys; details: Fig. 3A
BV2 cells = test: LPS-induced inflammatory gene mRNA expression; details: 30 μM pretreatment 30 minutes, 100 ng/mL LPS 6 hours
Sirt1 [3] = target: T3, Sirt1 (Homo sapiens, UniProt Q96EB6); test: Sirt1 deacetylation Activity Assay Kit; details: time course, Fig. 3
T3 sequence (Q96EB6 1-747): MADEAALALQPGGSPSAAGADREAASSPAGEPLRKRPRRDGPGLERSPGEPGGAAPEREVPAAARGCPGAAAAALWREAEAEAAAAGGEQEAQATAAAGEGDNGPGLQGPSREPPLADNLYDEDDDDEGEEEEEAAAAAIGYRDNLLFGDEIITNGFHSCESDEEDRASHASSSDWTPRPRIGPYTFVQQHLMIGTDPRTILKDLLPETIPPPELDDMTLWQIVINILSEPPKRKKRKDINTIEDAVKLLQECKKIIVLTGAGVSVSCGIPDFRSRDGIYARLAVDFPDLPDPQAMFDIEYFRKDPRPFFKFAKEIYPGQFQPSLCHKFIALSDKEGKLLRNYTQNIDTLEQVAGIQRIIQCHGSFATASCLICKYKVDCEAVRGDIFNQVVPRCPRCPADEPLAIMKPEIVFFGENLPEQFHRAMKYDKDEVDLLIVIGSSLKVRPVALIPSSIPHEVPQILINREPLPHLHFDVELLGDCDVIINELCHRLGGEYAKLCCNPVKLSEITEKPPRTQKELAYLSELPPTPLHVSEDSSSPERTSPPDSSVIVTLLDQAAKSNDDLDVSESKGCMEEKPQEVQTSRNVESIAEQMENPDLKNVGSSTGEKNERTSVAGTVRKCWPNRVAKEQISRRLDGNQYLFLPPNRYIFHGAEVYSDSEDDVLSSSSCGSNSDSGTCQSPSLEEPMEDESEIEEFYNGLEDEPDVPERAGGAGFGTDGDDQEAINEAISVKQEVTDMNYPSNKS

Sirt5 = target: T4, Sirt5 (Homo sapiens, UniProt Q9NXA8); test: Fluorogenic Sirt5 Assay Kit; assay type: biochemical; details: 100 μM compounds, 37 °C 30 min
T4 sequence (Q9NXA8 37-310): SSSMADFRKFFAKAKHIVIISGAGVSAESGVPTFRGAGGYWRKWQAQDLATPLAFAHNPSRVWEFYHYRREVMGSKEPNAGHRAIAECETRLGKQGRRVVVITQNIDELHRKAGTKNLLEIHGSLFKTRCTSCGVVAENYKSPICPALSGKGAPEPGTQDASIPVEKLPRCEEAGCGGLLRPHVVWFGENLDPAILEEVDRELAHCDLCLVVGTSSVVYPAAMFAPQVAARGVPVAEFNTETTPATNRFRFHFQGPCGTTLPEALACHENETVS

Sirt2 [4] = target: T5, Sirt2 (Homo sapiens, UniProt Q8IXJ6); test: Sirt2 deacetylation Activity Assay Kit; details: time course, Fig. 3
T5 sequence (Q8IXJ6 1-389): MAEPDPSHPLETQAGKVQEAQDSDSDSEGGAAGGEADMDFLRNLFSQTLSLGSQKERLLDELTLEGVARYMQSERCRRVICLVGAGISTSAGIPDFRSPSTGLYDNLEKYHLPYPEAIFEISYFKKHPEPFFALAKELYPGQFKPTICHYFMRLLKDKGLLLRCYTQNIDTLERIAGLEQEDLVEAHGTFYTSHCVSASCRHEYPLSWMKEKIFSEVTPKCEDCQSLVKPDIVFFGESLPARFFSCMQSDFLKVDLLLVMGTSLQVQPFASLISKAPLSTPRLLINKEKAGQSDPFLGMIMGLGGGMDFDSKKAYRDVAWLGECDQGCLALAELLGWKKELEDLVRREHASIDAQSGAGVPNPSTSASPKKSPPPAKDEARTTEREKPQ

Sirt6 [5] = target: T2, Sirt6; assay type: biochemical; details: 100 μM, 30 °C, 60 minutes
Sirt3 [6] = target: T1, Sirt3; details: cited from earlier work
Sirt1 [7] = target: T3, Sirt1; details: cited from earlier work
Sirt2 [8] = target: T5, Sirt2; details: cited from earlier work

T2 sequence (Q8N6T7 whole entry): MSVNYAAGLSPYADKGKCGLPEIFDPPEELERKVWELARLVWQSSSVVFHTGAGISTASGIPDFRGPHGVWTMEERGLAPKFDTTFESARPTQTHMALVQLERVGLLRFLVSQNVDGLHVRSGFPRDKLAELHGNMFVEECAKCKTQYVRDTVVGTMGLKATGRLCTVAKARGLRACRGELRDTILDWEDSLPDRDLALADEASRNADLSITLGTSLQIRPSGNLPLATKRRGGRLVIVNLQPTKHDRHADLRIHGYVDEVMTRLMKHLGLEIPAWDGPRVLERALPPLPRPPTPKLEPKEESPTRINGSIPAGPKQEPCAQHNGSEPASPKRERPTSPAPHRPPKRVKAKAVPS

SMILES	effect on Sirt3 deacetylation activity (Sirt3 [1])	effect on Sirt6 activity (time course) (Sirt6 [2])	ICAM-1 induction (BV2 cells)	LPS-induced expression of IL-1β (BV2 cells)	LPS-induced expression of IL-6 (BV2 cells)	LPS-induced expression of MCP-1 (BV2 cells)	LPS-induced expression of TNFα (BV2 cells)	effect on Sirt1 deacetylation activity (Sirt1 [3])	effect on Sirt5 desuccinylation activity (Sirt5)	effect on Sirt2 deacetylation activity (Sirt2 [4])	acetylation of H3K9 in the nucleosome test (Sirt6 [5])	effect on basal Sirt3 deacetylation activity (Sirt3 [6])	effect on basal Sirt1 deacetylation activity (Sirt1 [7])	effect on basal Sirt2 deacetylation activity (Sirt2 [8])
CN(C)CCN1CCN(c2ncccc2C2Nc3ccccc3-n3cccc32)CC1 (stereo not drawn) [Compound 38, 2-(4-(3-(4,5-Dihydropyrrolo[1,2-a]quinoxalin-4-yl)pyridin-2-yl)piperazin-1-yl)-N,N-dimethylethan-1-amine]	no significant effects	specifically promoted	slight inhibition	strongly inhibited	strongly inhibited	strongly inhibited	strongly inhibited	no significant effects	no significant effects	no significant effects	significantly decreased			
c1cncc(C2Nc3ccccc3-n3cccc32)c1 (stereo not drawn) [UBCS039, reference compound]				strongly inhibited	strongly inhibited	strongly inhibited	strongly inhibited					no obvious effects	no obvious effects	no obvious effects
